Calls of active or inactive are those of the source. No cut-off for these calls is given here.
What was measured:
HeLa [1] = assay: Antiproliferative activity against human HeLa cells assessed as inhibition of cell growth incubated for 1.5 hrs by CCK-8 assay; format: functional, cell-based
HCT-116 [2] = assay: Antiproliferative activity against human HCT-116 cells assessed as inhibition of cell growth incubated for 1.5 hrs by CCK-8 assay; format: functional, cell-based; details: HCT-116, 1.5 h
A2780 [3] = assay: Antiproliferative activity against human A2780 cells assessed as inhibition of cell growth incubated for 1.5 hrs by CCK-8 assay; format: functional, cell-based
[4] = biological target: Tubulin beta (Homo sapiens) (UniProt P68371+Q9H4B7+Q13509+P04350+Q3ZCM7+P07437+Q13885+Q9BVA1+Q9BUF5+A6NNZ2); assay: Binding affinity to beta-tubulin colchicine binding site in human HCT-116 cells assessed as inhibition of EBI-beta-tubulin adduct band formation at 5 to 25 uM preincubated for 2 hrs followed by EBI addition measured after 1.5 hrs by EBI competition based Western blotting analysis; format: cell-based; details: dose 5-25 µM, time 3.5 hrs
Tubulin = assay: Inhibition of tubulin (unknown origin) polymerization; format: protein-complex assay, Homo sapiens
[5] = Cytotoxicity against human HUVEC cells assessed as inhibition of cell growth incubated 1.5 hrs by MTT assay; format: toxicity, cell-based
[6] = Cytotoxicity against HEK293 cells assessed as inhibition of cell growth incubated 1.5 hrs by MTT assay; format: toxicity, cell-based; details: human
HCT-116 [7] = assay: Inhibition of colony formation in human HCT-116 cells at 0.1 uM incubated for 48 hrs by crystal violet staining based analysis; format: functional
SW480 = assay: Growth inhibition of human SW480 cells incubated for 1.5 hrs by MTT assay; format: functional, cell-based
CT26 = assay: Growth inhibition of CT26 cells incubated for 1.5 hrs by MTT assay; format: functional, cell-based; details: Mus musculus, CT26, 1.5 h
HeLa [8] = assay: Growth inhibition of human HeLa cells incubated for 1.5 hrs by MTT assay; format: functional, cell-based
HCT-116 [9] = assay: Growth inhibition of human HCT-116 cells incubated for 1.5 hrs by MTT assay; format: functional, cell-based; details: HCT-116, 1.5 h
A2780 [10] = assay: Growth inhibition of human A2780 cells incubated for 1.5 hrs by MTT assay; format: functional, cell-based; details: A2780, 1.5 h
HeLa [11] = assay: Potency index, ratio of 5-fluorouracil IC50 to test compound IC50 for antiproliferative activity against human HeLa cells assessed as inhibition of cell growth; format: functional
A2780 [12] = assay: Potency index, ratio of 5-fluorouracil IC50 to test compound IC50 for antiproliferative activity against human A2780 cells assessed as inhibition of cell growth; format: functional
HCT-116 [13] = assay: Potency index, ratio of 5-fluorouracil IC50 to test compound IC50 for antiproliferative activity against human HCT-116 cells assessed as inhibition of cell growth; format: functional
MDA-MB-231 = assay: Antiproliferative activity against human MDA-MB-231 cells assessed as inhibition of cell growth incubated for 24 hrs by MTT assay; format: functional, cell-based; details: MDA-MB-231, 24 h
Estrogen receptor beta = Estrogen receptor beta (Homo sapiens, UniProt Q92731); assay: Binding affinity to human recombinant ERbeta incubated for 20 mins
MCF7 = assay: Antiproliferative activity against human MCF7 cells assessed as inhibition of cell growth incubated for 24 hrs by MTT assay; format: functional, cell-based; details: MCF7, 24 h

Sequence of Estrogen receptor beta (Q92731 whole entry): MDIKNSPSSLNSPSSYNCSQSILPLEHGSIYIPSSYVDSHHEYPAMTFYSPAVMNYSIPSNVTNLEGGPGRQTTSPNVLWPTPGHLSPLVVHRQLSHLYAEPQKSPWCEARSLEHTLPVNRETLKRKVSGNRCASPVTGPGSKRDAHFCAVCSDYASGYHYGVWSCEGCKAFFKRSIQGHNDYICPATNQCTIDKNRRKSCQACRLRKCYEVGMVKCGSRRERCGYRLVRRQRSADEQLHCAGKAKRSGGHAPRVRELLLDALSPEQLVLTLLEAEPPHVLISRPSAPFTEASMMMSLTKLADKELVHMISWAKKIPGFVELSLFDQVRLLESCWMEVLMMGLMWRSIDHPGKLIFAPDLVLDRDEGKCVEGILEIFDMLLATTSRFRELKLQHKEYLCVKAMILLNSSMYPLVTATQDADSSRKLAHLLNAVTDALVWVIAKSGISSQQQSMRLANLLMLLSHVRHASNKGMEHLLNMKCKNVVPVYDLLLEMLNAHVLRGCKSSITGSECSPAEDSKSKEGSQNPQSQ

Row | SMILES | IC50 (HeLa [1]) [µM] | IC50 (HCT-116 [2]) [µM] | IC50 (A2780 [3]) [µM] | other results
1 | COc1ccc(C2CC(=O)c3cc(OC)c(OC)c(OC)c32)cc1OC (stereo not drawn) | 8.21 | 13.3 | 23.9 | 
2 | CCOc1ccc(C2CC(=O)c3cc(OC)c(OC)c(OC)c32)cc1 (stereo not drawn) | 0.48 | 0.3 | 0.71 | 
3 | CCOc1ccc(C2CC(=O)c3cc(OC)c(OC)c(OC)c32)cc1Cl (stereo not drawn) | 2.08 | 1.86 | 2.33 | 
4 | CC[C@]1(O)C[C@H]2CN(CCc3c([nH]c4ccccc34)[C@@](C(=O)OC)(c3cc4c(cc3OC)N(C=O)[C@H]3[C@@](O)(C(=O)OC)[C@H](OC(C)=O)[C@]5(CC)C=CCN6CC[C@]43[C@@H]65)C2)C1 |  |  |  | Activity [4]: Active
5 | COc1ccc(C2CC(=O)c3cc(OC)c(OC)c(OC)c32)cc1[N+](=O)[O-] (stereo not drawn) | 2.22 | 1.93 | 2.73 | 
6 | COc1ccc([C@H]2NC(=O)c3cc(OC)c(OC)c(OC)c32)cc1 |  |  |  | IC50 (Tubulin): 52 µM
7 | COc1ccc(C2CC(=O)c3cc(OC)c(OC)c(OC)c32)cc1F (stereo not drawn) | 0.6 | 0.25 | 0.7 | 
8 | COc1cc2c(c(OC)c1OC)-c1ccc(OC)c(=O)cc1[C@@H](NC(C)=O)CC2 [COLCHICINE] | 0.026 | 0.035 | 0.043 | IC50 at 1.5 h [5]: 9.62 µM; IC50 at 1.5 h [6]: 0.17 µM; inhibition (HCT-116 [7]): Active
9 | CCOc1ccc(C2CC(=O)c3cc(OC)c(OC)c(OC)c32)cc1Br (stereo not drawn) | 4.99 | 8.99 | 4.11 | 
10 | COc1ccc(C2CC(=O)c3cc(OC)c(OC)c(OC)c32)cc1I (stereo not drawn) | 7.22 | 8.5 | 7.58 | 
11 | COc1cc2c(c(OC)c1OC)C(c1ccc(OC(C)C)cc1)CC2=O (stereo not drawn) | 6.87 | 17.3 | 4.98 | 
12 | COc1cc(OC)cc(C2CC(=O)c3cc(OC)c(OC)c(OC)c32)c1 (stereo not drawn) | > 100 | > 100 | > 100 | 
13 | CCOc1ccc([C@@H]2CC(=O)c3cc(OC)c(OC)c(OC)c32)cc1F |  |  |  | IC50 (SW480): 4.52 µM; IC50 (CT26): 10.8 µM; IC50 (HeLa [8]): 1.05 µM; IC50 (HCT-116 [9]): 0.58 µM; IC50 (A2780 [10]): 3.69 µM
14 | COc1ccc(C2CC(=O)c3cc(OC)c(OC)c(OC)c32)cc1Br (stereo not drawn) | 3.52 | 0.8 | 4.87 | 
15 | COc1ccc(C2CC(=O)c3cc(OC)c(OC)c(OC)c32)cc1 (stereo not drawn) | 0.43 | 1.88 | 0.69 | 
16 | COc1cc(C2CC(=O)c3cc(OC)c(OC)c(OC)c32)ccc1Cl (stereo not drawn) | > 100 | > 100 | > 100 | 
17 | COc1ccc(C2CC(=O)c3cc(OC)c(OC)c(OC)c32)cc1Cl (stereo not drawn) | 2.13 | 0.31 | 2.52 | 
18 | CCOc1ccc(C2CC(=O)c3cc(OC)c(OC)c(OC)c32)cc1F (stereo not drawn) | 0.37 | 0.24 | 0.51 | IC50 (SW480): 3.6 µM; IC50 (CT26): 5.24 µM; IC50 (HeLa [8]): 0.66 µM; Ratio IC50 (HeLa [11]): 42; Ratio IC50 (A2780 [12]): 71; IC50 (HCT-116 [9]): 0.35 µM; Ratio IC50 (HCT-116 [13]): 54; IC50 (A2780 [10]): 1.81 µM
19 | COc1ccc([C@@H]2C(=O)c3ccc(OC)cc3[C@H]2c2ccc(OCCN3CCC(C)CC3)cc2)cc1 |  |  |  | IC50 (MDA-MB-231): 3.94 µM; IC50 (Estrogen receptor beta): 0.51 µM; IC50 (MCF7): 7.16 µM
20 | COc1cc2c(c(OC)c1OC)C(c1ccc(SC)cc1)CC2=O (stereo not drawn) | 2.27 | 1.82 | 2.91 | 
21 | COc1cc2c(c(OC)c1OC)C(c1ccc(OC(C)(C)C)cc1)CC2=O (stereo not drawn) | 9.15 | 15.4 | 12.6 | 
22 | COc1ccc([C@H]2NC(=O)c3cc(OC)cc(OC)c32)cc1 |  |  |  | IC50 (Tubulin): > 100 µM
23 | COc1cc(C2CC(=O)c3cc(OC)c(OC)c(OC)c32)cc(OC)c1OC (stereo not drawn) | > 100 | > 100 | > 100 | 
24 | O=c1[nH]cc(F)c(=O)[nH]1 [FLUOROURACIL] | 15.7 |  | 36.3 | IC50 (SW480): 37.5 µM; IC50 (CT26): 59.2 µM; IC50 at 1.5 h [5]: 0.43 µM; IC50 at 1.5 h [6]: 5.11 µM; IC50 (A2780 [10]): 32.1 µM

From ChEMBL document CHEMBL5329222, “Discovery of novel tubulin CBSI (R)-9k from the indanone scaffold for the treatment of colorectal cancer” (RSC Med Chem, 2023)
